The results in this text go back to patent US11896589B2, “Diazinyl amino acridines and medical uses thereof” (MyCural Therapeutics AB, priority 2018, dated 2024).

A word on the IC50: it is the concentration needed to halve the response being measured. The GI50 is the concentration that inhibits growth by half.

One test concerns the target T1, MAX bHLHZip (Homo sapiens, UniProt P61244).
T1 construct: Recombinant MYC bHLHZip and MAX bHLHZip proteins were titrated
Briefly: Assay 2A MST assay with MAX. It counts as binding. The following applies: compound fixed at 3 μM, MAX titrated, highest concentration tested 15 μM. The procedure: (§1) FIG. 2: A) MST assay of Example 1 effect on MYC and MAX, respectively. Recombinant MYC bHLHZip and MAX bHLHZip proteins were titrated, respectively, in a fixed concentration (3 μM) of Example 1. Changes in fluorescence were measured and normalized to control (buffer). Data are shown as mean±standard deviation of 6-8 biological repeats. B) MST assay of MYC (reverse MST). A fixed concentration of 200 nM labeled MYC was mixed with different concentrations of Example 1 as indicated. Data are shown as mean±standard deviation of 5 biological repeats. C) MST assay of Example 2 effect on MYC. D) MST assay of MYC with a control compound (non-binder).
The MYC MST assay was performed as described above (Biological example 1—Assay 1A), except that the fluorescent molecule was either protein or Example 1. The example compound was kept at a fix concentration of 3 μM in PBS supplemented with 0.05% Tween-20, while MYCbHLHZip or MAX was titrated. The migration of example compound changed at MYC protein concentrations above 1 μM, but was unaffected with MAX up to highest concentration tested (15 μM) (FIG. 2A). In a reverse experiment, Example 1 was titrated in a fixed protein concentration in PBS supplemented with 0.05% Tween-20 and 1% DMSO as described above after labelling primary amines of the protein using the Protein labelling kit GREEN-NHS (NanoTemper) according to manufacturer's protocol. […]

The target in test [1] is T2, MYC:MAX heterodimer (MYCbHLHZip over immobilized MAXbHLHZip) (Homo sapiens, UniProt P01106).
T2 construct: MYC:MAX heterodimer formation assay based on recombinant proteins
The experiment in a line: Assay 1B MYC:MAX SPR heterodimer formation assay. It counts as binding. Particulars: 100 nM MYCbHLHZip pre-mixed with compound, 25° C. The procedure:
FIG. 1: A) Microscale thermophoresis (MST) of fluorescently labeled MAX in a MYC:MAX heterodimer formation assay based on recombinant proteins. MST of labeled MAXbHLHZip after titration of Example 1 pre-incubated with 1 μM MYCbHLHZip, or with 1 μM MAXbHLHZip. Fluorescence intensity of labeled MAXbHLHZip relative DMSO was plotted against Example 1 concentration. B) Surface plasmon resonance (SPR) of MYC:MAX heterodimer formation assay. MAXbHLHZip was immobilized by an amino coupling procedure to a CM5 sensor chip. MYCbHLHZip pre-incubated with or without compound (as indicated) was injected over MAX for 180 seconds, allowed to dissociate for 240 seconds and regenerated. Reference surface (without MAXbHLHZip) subtracted sensorgrams are shown from one representative experiment. C) MYC binding response units (RU) plotted against Example 1 concentration from which an IC50 of Example 1 inhibition of MYC:MAX heterodimer formation is determined, summary of four experiments.
Assay 1B. Surface Plasmon Resonance (SPR)
The SPR method is a highly sensitive assay to determine the affinity between protein and ligand and to measure the kinetics of the interaction (see Handbook of Surface Plasmon Resonance 2nd edition, Richard B M Schasfoort (Editor), RSC 2017, ca. 500 p., hardcover, ISBN 978-1-78262-730-2). […]

Another test concerns the target T3, MYCbHLHZip (Homo sapiens, UniProt P01106).
T3 construct: An amino coupling procedure was used to immobilize MYCbHLHZip protein on a CM5 sensor chip
Briefly: Assay 2A MYC binding MST assay. Particulars: approximately 200 nM labelled MYC, compound titrated. The procedure: as §1
Assay 2A. MYC Binding MST Assay
The MYC MST assay was performed as described above (Biological example 1—Assay 1A), except that the fluorescent molecule was either protein or Example 1. The example compound was kept at a fix concentration of 3 μM in PBS supplemented with 0.05% Tween-20, while MYCbHLHZip or MAX was titrated. The migration of example compound changed at MYC protein concentrations above 1 μM, but was unaffected with MAX up to highest concentration tested (15 μM) (FIG. 2A). […]

Test [2] concerns MYC null (H015.19) Rat1 fibroblast cells. Briefly: Assay 5B Tgr cell growth (WST-1), MYC null. The format is cell-based, rat. The following applies: 48 hours. The procedure: (§2) FIG. 6: A-B) Neuroblastoma cell lines with (SK-N-DZ, Kelly and IMR-32) or without (SK-N-F1, SK-N-RA and SK-N-AS) MYCN-amplification were exposed to different concentrations of Example 1, Example 2 and control compound, respectively, for 48 hours. Cell growth and viability was estimated by measuring metabolic activity. C) Growth of TGR-1 (wt), HO15.19 (MYC knockout) and HOmyc3 (MYC reconstituted HO15.19) Rat1 fibroblasts, as measured by the WST-1 assay after treatment with Example 1. Data are shown as mean±standard deviation of 3-5 biological experiments, each with 3 technical repeats.
Assay 5B: Tgr Cell Growth
Tgr cells were treated at 37° C. and 5% CO2 at 48 hours with Example and Example 2. H015.19 is a MYC null rat cell line derived from Tgr1 (parental cells), while H0Myc3 cells were generated from the MYC null cells by reconstitution of a MYC gene(Mateyak, M. K., Obaya, A. J., Adachi, S. & Sedivy, J. M. Phenotypes of c-Myc-deficient rat fibroblasts isolated by targeted homologous recombination. Cell Growth Differ 8, 1039-1048 (1997)).

Test [3] deals with MYCN-amplified neuroblastoma cells (SK-N-DZ, Kelly, IMR-32). Briefly: Assay 5A neuroblastoma cell growth (WST-1), MYCN-amplified. Particulars: Homo sapiens, second run. The format is cell-based. As to the method: as §2
Assay 5A: Neuroblastoma Cell Growth
Neuroblastoma cell lines with (SK-N-DZ, Kelly and IMR-32) or without (SK-N-F1, SK-N-RA and SK-N-AS) MYCN-amplification were exposed to different concentrations of example compounds for 48 hours. Cell growth and viability was estimated by measuring metabolic activity by incubating cells in triplicates with WST-1 (Roche) in medium at 37° C. and 5% CO2 for 2 hours after which absorbance was measured with an Omega Fluostar (BMG Labtech) in a 96 well plate format.

T1 sequence (P61244 22-102): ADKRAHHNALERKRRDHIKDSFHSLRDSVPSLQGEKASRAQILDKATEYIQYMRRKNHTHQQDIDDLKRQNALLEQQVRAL
T2 sequence (P01106 368-449 limits assumed, one chain of several): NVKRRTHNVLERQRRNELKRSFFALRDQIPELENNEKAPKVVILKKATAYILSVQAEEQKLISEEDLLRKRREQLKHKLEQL
T3 sequence (P01106 368-449 limits assumed): as the sequence (P01106 368-449 limits assumed, one chain of several) above

In the case of `CCOc1ccc2nc3cc(/N=N/c4ccc(N)nc4N)ccc3c(N)c2c1` [Example 1, 3-((9-amino-7-ethoxyacridin-3-yl)diazenyl)pyridine-2,6-diamine sulphate hydrate], the “Effect on thermophoresis (MAX protein concentration)” value at MAX bHLHZip is greater than 15 µM. Besides, the IC50 in test [1] was determined as 3.8 µM. The “compound concentration affecting migration of MYC (reverse MST)” value at MYCbHLHZip was 200 to 400 nM. Moreover, the “growth of the MYC null cells” value in test [2] is reported as “did not significantly affect”. Further, the GI50 in test [2] (Rattus norvegicus, Fibroblast, first run) is greater than 10 µM; in test [3], 2.5 µM.
